Values joined by “and” are separate entries in the source; they are usually repeats but may differ in a detail not shown here. Identical values can stand only once.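 Each compound was tested at five concentrations against cells in 96-well plates for 48 hours. Abbreviation: GI50, concentration required for 50% inhibition of growth. TGI marks complete inhibition of growth.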
Tests used:
Assay in all cases: DTP human tumour cell line panel, 48 h
[1] = test system: CAKI-1 renal
[2] = test system: LOX IMVI melanoma
[3] = test system: NCI-H522 lung
[4] = test system: OVCAR-8 ovarian
[5] = test system: SF-295 CNS
[6] = test system: SF-539 CNS
[7] = test system: SK-OV-3 ovarian
[8] = test system: BT-549 breast
[9] = test system: NCI/ADR-RES ovarian
[10] = test system: T-47D breast

| Structure (SMILES) | TGI [1] [µM] | TGI [2] [µM] | TGI [3] [µM] | TGI [4] [µM] | TGI [5] | TGI [6] | TGI [7] | GI50 [8] [µM] | TGI [8] [µM] | GI50 [1] [µM] | GI50 [2] [µM] | GI50 [3] [µM] | GI50 [9] [µM] | TGI [9] [µM] | GI50 [4] [µM] | GI50 [5] [µM] | GI50 [7] [µM] | GI50 [10] [µM] | TGI [10] [µM] | GI50 [6] [µM] |
| --- | --- | --- | --- | --- | --- | --- | --- | --- | --- | --- | --- | --- | --- | --- | --- | --- | --- | --- | --- | --- |
| COC(=O)Cc1cc(=O)oc2c1C(=O)CCC2 | > 100 | > 100 | > 100 | > 100 | > 100 µM | > 100 µM | > 100 µM | – | – | – | – | – | – | – | – | – | – | – | – | – |
| N#CC1=C(N)NC(=S)C(C#N)C12Nc1ccccc1S2 (configuration not stated) | 35.1 | 32.6 | 35.6 | 65 | 47.8 µM | – | 77.8 µM | 21.7 | 49.1 | 11 | 13.5 | 16.2 | 14.3 | 43.7 | 27.2 | 19.5 | 27.1 | 32.9 | 98.4 | – |
| O=C(O)C(CS)N=Cc1nc(-c2ccccc2)oc1O (configuration not stated) | – | > 100 | > 100 | > 100 | > 100 µM | > 100 µM | > 100 µM | – | – | – | – | – | – | – | – | – | – | – | – | – |
| NC(=O)c1ncn(C2OC(CO)C(O)C2O)c1NC(=S)NC(=O)c1ccccc1 (configuration not stated) | > 100 | > 100 | > 100 | > 100 | > 100 µM | > 100 µM | > 100 µM | – | – | – | – | – | – | – | – | – | – | – | – | – |
| CCCC/C=C1\CCC(CN2CCCC2)C1=O (configuration not stated) | – | 21.7 | – | 28.5 | 36.4 µM | 29.8 µM | 97.1 µM | – | – | – | – | – | – | – | – | – | – | – | – | – |
| CN1C=C(C(N)=O)C2CC(O)[C@@](NC(=O)CS(N)(=O)=O)(C(=O)O)C2C1 (some centres not stated) | > 100 | 5.58 | 23.9 | 18.2 | 6.97 µM | 4.41 µM | 6.75 µM | – | – | – | – | – | – | – | – | – | – | – | – | – |
| COc1ccccc1-c1nccc(COc2ccccc2C[C@@H](Oc2ncnc3sc(-c4ccc(F)cc4)c(-c4ccc(OCCN5CCN(C)CC5)c(Cl)c4C)c23)C(=O)O)n1 | 9.89 | – | – | > 28.4 | 3.91 µM | 2.59 µM | 16.5 µM | 1.03 | 2.59 | 2.66 | – | – | 18.2 | > 100 | 2.9 | 1.89 | 4.04 | 3.49 | 23 | 1.21 |
| CCC1(Cl)C(=O)NC(=O)N(C2CC(O)C(CO)O2)C1N=[N+]=[N-] (configuration not stated) | > 100 | > 100 | > 100 | > 100 | > 100 µM | > 100 µM | > 100 µM | – | – | – | – | – | – | – | – | – | – | – | – | – |
| CCCCOP1(=O)C=CC(Cl)=C(C)C1 (configuration not stated) | > 100 | – | – | 51.3 | 39.6 µM | 36.3 µM | – | – | – | – | – | – | – | – | – | – | – | – | – | – |
| Cc1cc(N(CCC#N)CCC#N)ccc1/C=C/C(=O)Nc1ccccc1Cl | > 100 | > 100 | > 100 | > 100 | > 100 µM | > 100 µM | > 100 µM | – | – | – | – | – | – | – | – | – | – | – | – | – |
| Cc1cc(C)c2nccc(NCCCN(C)C)c2c1[N+](=O)[O-] | > 100 | 51.9 | 27.5 | > 100 | > 100 µM | 84.8 µM | > 100 µM | – | > 100 | – | – | – | – | – | – | – | – | – | > 100 | – |
| Cc1nnc(N=Nc2c(O)[nH]c3ccccc23)[nH]c1=O | – | > 100 | > 100 | > 100 | > 100 µM | > 100 µM | > 100 µM | – | > 100 | – | – | – | – | > 100 | – | – | – | – | – | – |
| COC(=O)C1=C(C(=O)OC)C(C(=O)OC)C(C(=O)OC)C(C(=O)OC)(C(=O)OC)C(C(=O)OC)=C1C(=O)OC (configuration not stated) | 36.7 | 28.2 | 4.07 | 25.2 | 39.9 µM | 36.7 µM | 55.6 µM | – | 32.1 | – | – | – | – | – | – | – | – | – | 50.8 | – |
| Cc1cc(Nc2cc(N3CCN(C)CC3)nc(C#Cc3ccccc3)n2)n[nH]1 | 8.71 | 12.8 | – | 22.3 | 16.8 µM | 10.8 µM | 13.2 µM | 4.68 | 17.8 | 0.945 | 1.85 | – | 4.98 | 28.8 | 6.5 | 3.39 | 2.16 | 4.86 | 23 | 2.79 |
| C=C1C(=O)C23CC1CCC2C12CO[C@@]3(O)[C@@H](O)C1C(C)(C)C=CC2=O (some centres not stated) | 4.13 | 11.5 | 4.09 | – | 4.79 µM and 32 µM | 1.8 µM and 13.4 µM | 13.7 µM and 54.5 µM | – | – | – | – | – | – | 60.4 | 3.37 | 18.1 | 26.1 | – | 33.1 | 4.43 |
| COc1cc(-c2nn3c(=O)n(-c4ccc(Cl)cc4)c(=O)nc3s2)cc(OC)c1OC | > 62.2 | > 50 | > 100 | > 100 | > 50 µM and 90.2 µM | 50 µM and 45.6 µM | > 100 µM | – | – | > 50 | > 50 | > 50 | – | – | – | 18.2 | 33.5 | – | – | 32.9 |
| CN1CCN(CCCOc2ccc3ncnc(Nc4ccc(Oc5cccc(F)c5)c(Cl)c4)c3c2)CC1 | 3.1 | 3.1 | 3.14 | 6.42 | 3.25 µM | 2.93 µM | – | 1.7 | 3.3 | 1.52 | 1.7 | 1.23 | 1.83 | 4.79 | 2.19 | 1.8 | – | 1.34 | 4.35 | 1.54 |
| c1cc2ccc1C1NCCCN1CCN1CCCNC1c1ccc(cc1)C1NCCCN1CCN1CCCNC21 (configuration not stated) | > 100 | > 100 | 97.9 | > 100 | > 100 µM | > 100 µM | > 100 µM | – | – | – | – | – | – | – | – | – | – | – | – | – |
| C=CCN(N=O)C(=O)ON1C(=O)CCC1=O | – | > 100 | > 100 | > 100 | > 100 µM | > 100 µM | > 100 µM | – | – | – | – | – | – | – | – | – | – | – | – | – |
| Cc1cc2c(-c3nc4ccccn4c3NC34CC5CC(CC(C5)C3)C4)c(O)c(O)cc2c(O)c1-c1c(C)cc2c(-c3nc4ccccn4c3NC34CC5CC(CC(C5)C3)C4)c(O)c(O)cc2c1O | – | 3.38 | 3.54 | > 25 | 2.78 µM | 2.98 µM | 2.3 µM | 0.105 | 5.96 | – | 0.412 | 0.613 | 1.05 | > 25 | 0.871 | 0.262 | 0.749 | 0.187 | 2.49 | 0.671 |

Reference: PubChem BioAssay (NCI)
